Measurements from PubChem BioAssay (NCI).
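Tested at 5 concentrations; 48 h exposure; 96-well plates; endpoints linearly interpolated, else capped at highest concentration. GI50: concentration for 50% inhibition of growth. TGI marks complete inhibition of growth.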

Tests used:
Assay in all cases: growth of human tumour cells (NCI), 48 h
[1] = tested on: A549 NSCLC
[2] = tested on: SF-268 CNS
[3] = tested on: UACC-62 melanoma
[4] = tested on: IGROV1 ovarian
[5] = tested on: HT29 colon
[6] = tested on: PC-3 prostate
[7] = tested on: SK-OV-3 ovarian
[8] = tested on: OVCAR-4 ovarian
[9] = tested on: KM12 colon
[10] = tested on: K-562 leukemia
[11] = tested on: MCF7 breast
[12] = tested on: MOLT-4 leukemia
[13] = tested on: MDA-N
[14] = tested on: SNB-19 CNS
[15] = tested on: U251 CNS
[16] = tested on: COLO 205 colon
[17] = tested on: CCRF-CEM leukemia
[18] = tested on: 786-0 renal
[19] = tested on: BT-549 breast
[20] = tested on: OVCAR-8 ovarian
[21] = tested on: SN12C renal
[22] = tested on: NCI-H460 lung
[23] = tested on: ACHN renal
[24] = tested on: A498 renal
[25] = tested on: MDA-MB-231 breast
[26] = tested on: SK-MEL-2 melanoma
[27] = tested on: T-47D breast
[28] = tested on: HCT-15 colon
[29] = tested on: NCI-H23 lung
[30] = tested on: HOP-62 NSCLC
[31] = tested on: MALME-3M melanoma
[32] = tested on: UO-31 renal
[33] = tested on: HCT-116 colon
[34] = tested on: M14 melanoma
[35] = tested on: HS 578T breast
[36] = tested on: SW-620 colon
[37] = tested on: UACC-257 melanoma
[38] = tested on: SK-MEL-28 melanoma
[39] = tested on: MDA-MB-435
[40] = tested on: HCC-2998 colon
[41] = tested on: SF-539 CNS
[42] = tested on: OVCAR-5 ovarian
[43] = tested on: NCI-H226 lung
[44] = tested on: TK-10 renal
[45] = tested on: HL-60(TB) leukemia
[46] = tested on: OVCAR-3 ovarian
[47] = tested on: SK-MEL-5 melanoma
[48] = tested on: EKVX NSCLC
[49] = tested on: SNB-75 CNS
[50] = tested on: SF-295 CNS
[51] = tested on: RXF 393 renal
[52] = tested on: NCI/ADR-RES ovarian
[53] = tested on: LOX IMVI melanoma
[54] = tested on: RPMI-8226 leukemia
[55] = tested on: DU-145 prostate
[56] = tested on: CAKI-1 renal
[57] = tested on: NCI-H522 lung

Question: What does the source list for `O=C(O)CN(CCN(CC(=O)O)CC(=O)O)CC(=O)O.[Cu+2].[Na+]`?
Answer: GI50 [1]: > 100 µM; TGI [1]: > 100 µM; GI50 [2]: > 100 µM; TGI [2]: > 100 µM; GI50 [3]: > 100 µM; TGI [3]: > 100 µM; GI50 [4]: > 100 µM; TGI [4]: > 100 µM; GI50 [5]: > 100 µM; TGI [5]: > 100 µM; GI50 [6]: > 100 µM; TGI [6]: > 100 µM; GI50 [7]: 23.5 µM; TGI [7]: 65.2 µM; GI50 [8]: > 100 µM; TGI [8]: > 100 µM; GI50 [9]: > 100 µM; TGI [9]: > 100 µM; GI50 [10]: > 100 µM; TGI [10]: > 100 µM; GI50 [11]: > 100 µM; TGI [11]: > 100 µM; GI50 [12]: > 100 µM; TGI [12]: > 100 µM; GI50 [13]: > 100 µM; TGI [13]: > 100 µM; GI50 [14]: > 100 µM; TGI [14]: > 100 µM; GI50 [15]: > 100 µM; TGI [15]: > 100 µM; GI50 [16]: > 100 µM; TGI [16]: > 100 µM; GI50 [17]: > 100 µM; TGI [17]: > 100 µM; GI50 [18]: > 100 µM; TGI [18]: > 100 µM; GI50 [19]: > 100 µM; TGI [19]: > 100 µM; GI50 [20]: > 100 µM; TGI [20]: > 100 µM; GI50 [21]: > 100 µM; TGI [21]: > 100 µM; GI50 [22]: > 100 µM; TGI [22]: > 100 µM; GI50 [23]: > 100 µM; TGI [23]: > 100 µM; GI50 [24]: > 100 µM; TGI [24]: > 100 µM; GI50 [25]: > 100 µM; TGI [25]: > 100 µM; GI50 [26]: > 100 µM; TGI [26]: > 100 µM; GI50 [27]: > 100 µM; TGI [27]: > 100 µM; GI50 [28]: > 100 µM; TGI [28]: > 100 µM; GI50 [29]: > 100 µM; TGI [29]: > 100 µM; GI50 [30]: 26.2 µM; TGI [30]: 79.5 µM; GI50 [31]: > 100 µM; TGI [31]: > 100 µM; GI50 [32]: > 100 µM; TGI [32]: > 100 µM; GI50 [33]: > 100 µM; TGI [33]: > 100 µM; GI50 [34]: > 100 µM; TGI [34]: > 100 µM; GI50 [35]: > 100 µM; TGI [35]: > 100 µM; GI50 [36]: > 100 µM; TGI [36]: > 100 µM; GI50 [37]: > 100 µM; TGI [37]: > 100 µM; GI50 [38]: > 100 µM; TGI [38]: > 100 µM; GI50 [39]: > 100 µM; TGI [39]: > 100 µM; GI50 [40]: > 100 µM; TGI [40]: > 100 µM; GI50 [41]: > 100 µM; TGI [41]: > 100 µM; GI50 [42]: > 100 µM; TGI [42]: > 100 µM; GI50 [43]: > 100 µM; TGI [43]: > 100 µM; GI50 [44]: > 100 µM; TGI [44]: > 100 µM; GI50 [45]: > 100 µM; TGI [45]: > 100 µM; GI50 [46]: 19.2 µM; TGI [46]: 51.8 µM; GI50 [47]: > 100 µM; TGI [47]: > 100 µM; GI50 [48]: > 100 µM; TGI [48]: > 100 µM; GI50 [49]: > 100 µM; TGI [49]: > 100 µM; GI50 [50]: 22.3 µM; TGI [50]: 63.3 µM; GI50 [51]: > 100 µM; TGI [51]: > 100 µM; GI50 [52]: > 100 µM; TGI [52]: > 100 µM; GI50 [53]: > 100 µM; TGI [53]: > 100 µM; GI50 [54]: > 100 µM; TGI [54]: > 100 µM; GI50 [55]: > 100 µM; TGI [55]: > 100 µM; GI50 [56]: > 100 µM; TGI [56]: > 100 µM; GI50 [57]: > 100 µM; TGI [57]: > 100 µM
